Measurements from EP0167710A1, “Use of benomyl for the manufacture of a medicament against ichthyophthyriasis” (Eduro World Investments Inc., priority 1984, dated 1986).

Legend:
[1] = tested on: Ichthiophthyriasis auslösenden Parasiten; assay: Treatment of Ichthyophthyriasis-infected fish in aquaria (Beispiel 2); format: in vivo; details: after 7 Behandlungstagen; 18 Neonsalmler per tank; conditions of Beispiel 1, repeat dose equal to the initial dose
Description: (§1) Unter gleichen Bedingungen wurden in drei Fischbehältern A, B und C (40 Liter) je 16 Sumatrabarben ausgesetzt. Die Wassertemperatur betrug 25 + 1°C. Nach eintägiger Haltung wurden die Fische in Kontakt mit Ichthiophthyriasis auslösenden Parasiten gebracht. Nach visuell sichtbarer Infektion wurden zugesetzt: • Im Aquarium A: Reines Wasser • Im Aquarium B: 1-(N-Butylcarbamoyl)-2-(methoxycarbonyl-amino)-benzimidazol (als pulverförmiges Gemisch. Konzentration an Wirkstoff 0,2 mg/ml) • Im Aquarium C: Malachitgrün (Wirkstoffkonzentrat-0,03 mg/ml)
(§2) Die Zugabe wurde mit der halben Dosierung nach 3 bis 5 Tagen wiederholt.
Unter den Bedingungen des Beispiels 1 wurden jeweils 18 Neonsalmler behandelt. Die Nachdosierung erfolgte jedoch in Höhe der Anfangsdosierung.

[2] = tested on: Ichthiophthyriasis auslösenden Parasiten; assay: Treatment of Ichthyophthyriasis-infected fish in aquaria (Beispiel 1); format: in vivo; details: 6 days after start of treatment, 16 Sumatrabarben per 40 Liter tank, Benomyl 0,2 mg/ml, Malachitgrün 0,03 mg/ml, repeated at half dose after 3 bis 5 Tagen; for Ausfälle: 25 + 1°C
Description: as §1, §2

Row | Structure (SMILES) | Ausfälle [1] | Ausfälle [2] | Schuppenbild [2]
1 | CCCCNC(=O)n1c(NC(=O)OC)nc2ccccc21 [Benomyl] | Keine Ausfälle | 2 Tieren pro Becken | normalisiert
2 | CN(C)c1ccc(C(=C2C=CC(=[N+](C)C)C=C2)c2ccccc2)cc1 [Malachitgrün] | Ein Ausfall | 2 Tieren pro Becken | normalisiert
